Experimental data: the supplement of paper PMC10307832

Key:
Test in all cases: relative viability (nuclei count vs DMSO), 5 days (fraction); higher = more cells survive
BAM7 + Alpelisib = compound: CCOC1=CC=CC=C1N=NC2=C(NN(C2=O)C3=NC(=CS3)C4=CC=CC=C4)C [BAM7] + Cc1nc(NC(=O)N2CCC[C@H]2C(N)=O)sc1-c1ccnc(C(C)(C)C(F)(F)F)c1 [Alpelisib] (partner 2 µM)
Outline: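 Each reported value is a median over duplicate plates. It expresses relative viability: treated-well nuclei count divided by vehicle-well nuclei count. Lung cancer cell lines in 1536-well plates were dosed by pin tool a day after seeding, alone with one drug or with a fixed anchor-drug dose plus five library-drug doses (not always all listed) in √10 steps, and nuclei were counted after 5 days.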

BAM7 = compound: CCOC1=CC=CC=C1N=NC2=C(NN(C2=O)C3=NC(=CS3)C4=CC=CC=C4)C [BAM7]
Outline: (§1)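 Hoechst staining, done together with fixation and permeabilisation, marked nuclei for 4× imaging and MetaXpress counting. This followed 5 days without medium change after lung cancer cell lines, kept overnight at 37 °C in 1536-well plates, were pinned with five library-drug doses (not always all listed) spaced by √10 on vehicle-anchored plates. Viability is the ratio of treated-well to vehicle-well nuclei, expressed as a median across plates. Plates passed only at control CV below 25% with at least one doubling.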

[1] = compound: CCn1c(-c2nonc2N)nc2c(C#CC(C)(C)O)ncc(OC[C@H]3CCCNC3)c21
Outline: as §1

Cell Line: UMC-11
- relative viability (BAM7 + Alpelisib; first compound 0.5 µM): 1.11
- relative viability (BAM7 + Alpelisib; first compound 5 µM): 1.12
- relative viability (BAM7 + Alpelisib; first compound 15.81 µM): 0.992
- relative viability (BAM7 + Alpelisib; first compound 50 µM): 0.989
- relative viability (BAM7; 0.5 µM): 1.01
- relative viability (BAM7; 5 µM): 1.1
- relative viability (BAM7; 15.81 µM): 1.06
- relative viability (BAM7; 50 µM): 1.07
- relative viability ([1]; 0.01 µM): 0.955
- relative viability ([1]; 0.03162 µM): 1.02
- relative viability ([1]; 0.1 µM): 0.957
- relative viability ([1]; 0.3162 µM): 0.982
- relative viability ([1]; 1 µM): 0.943
